pIC50: −log10 of the molar value. Active and inactive are the calls of the source. No cut-off for these calls is given here.
Assays:
[1] = molecular target: T1, Aldehyde dehydrogenase, mitochondrial (Homo sapiens) (UniProt P05091); assay: Effect on recombinant human ALDH2 using propionaldehyde as substrate at 20 uM preincubated for 2 mins with NAD+ followed by substrate addition by UV-Vis spectrophotometric analysis
T1 sequence (whole entry): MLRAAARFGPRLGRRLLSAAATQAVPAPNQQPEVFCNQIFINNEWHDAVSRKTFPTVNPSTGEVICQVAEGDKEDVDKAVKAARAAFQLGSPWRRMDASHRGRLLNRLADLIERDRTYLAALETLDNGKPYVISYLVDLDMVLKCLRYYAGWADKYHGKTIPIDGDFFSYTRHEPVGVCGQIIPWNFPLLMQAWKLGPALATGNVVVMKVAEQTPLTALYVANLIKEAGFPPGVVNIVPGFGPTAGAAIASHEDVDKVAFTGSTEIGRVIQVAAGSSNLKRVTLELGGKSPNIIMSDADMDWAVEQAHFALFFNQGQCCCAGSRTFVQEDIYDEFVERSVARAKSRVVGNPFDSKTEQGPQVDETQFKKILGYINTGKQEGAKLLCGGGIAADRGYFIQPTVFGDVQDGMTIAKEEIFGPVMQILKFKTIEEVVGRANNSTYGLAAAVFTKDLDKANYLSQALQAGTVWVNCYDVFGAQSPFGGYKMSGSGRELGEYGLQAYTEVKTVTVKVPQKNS

[2] = molecular target: T2, Aldehyde dehydrogenase, dimeric NADP-preferring (Homo sapiens) (UniProt P30838); assay: Effect on recombinant human ALDH3A1 using benzaldehyde as substrate at 20 uM preincubated for 2 mins with NAD+ followed by substrate addition by UV-Vis spectrophotometric analysis
T2 sequence (whole entry): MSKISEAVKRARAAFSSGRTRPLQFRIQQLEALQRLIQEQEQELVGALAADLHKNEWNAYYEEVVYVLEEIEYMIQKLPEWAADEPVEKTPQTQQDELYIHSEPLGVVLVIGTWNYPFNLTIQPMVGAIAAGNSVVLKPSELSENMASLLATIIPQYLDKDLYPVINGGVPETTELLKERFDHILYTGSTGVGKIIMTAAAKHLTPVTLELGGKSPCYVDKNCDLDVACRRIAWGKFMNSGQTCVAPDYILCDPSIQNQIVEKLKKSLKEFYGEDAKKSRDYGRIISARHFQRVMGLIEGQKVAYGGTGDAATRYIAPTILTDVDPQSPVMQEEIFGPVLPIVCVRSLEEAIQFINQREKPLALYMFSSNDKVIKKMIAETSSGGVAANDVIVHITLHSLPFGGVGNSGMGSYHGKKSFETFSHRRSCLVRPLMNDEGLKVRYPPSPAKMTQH

[3] = molecular target: T3, Aldehyde dehydrogenase, dimeric NADP-preferring (Homo sapiens, UniProt P30838); assay: Inhibition of recombinant human ALDH3A1 using benzaldehyde as substrate preincubated for 2 mins with NAD+ followed by substrate addition by UV-Vis spectrophotometric analysis
T3 sequence (P30838 whole entry): T2 sequence (whole entry)

Activity [1]	Activity [2]	pIC50 [3]	SMILES
inactive	inactive	–	CC(C)CCn1c(CN2CCN(C(=O)c3ccco3)CC2)nc2c1c(=O)n(C)c(=O)n2C
–	–	< 4.00	Cn1c(=O)c2c(nc(SCC(N)=O)n2Cc2ccccc2F)n(C)c1=O
